# PMC8587000, “Pyridinone Derivatives as Interesting Formyl Peptide Receptor (FPR) Agonists for the Treatment of Rheumatoid Arthritis” (Molecules, 2021)
# Where two headings read alike, the source gives them in different places.
# How the values were obtained:
# CFA-treated rats [1] = test: Incapacitance test in CFA-induced inflammatory arthritis; type: in vivo, rat; conditions: 10 mg/kg p.o. daily for 7 days, day 8, CFA + vehicle 57.2 ± 4.0 g, sham + vehicle 3.6 ± 2.5 g, mean ± SEM, five rats
# Experimental: (§1) Male Sprague Dawley rats (Envigo, Varese, Italy) weighing approximately 200–250 g at the beginning of the experimental procedure were used. Animals were housed in Ce.S.A.L. (Centro Stabulazione Animali da Laboratorio, University of Florence) and used at least one week after their arrival. Four rats were housed per cage (size 26 × 41 cm^2); animals were fed a standard laboratory diet, given tap water ad libitum, and kept at 23 ± 1 °C with a 12 h light/dark cycle, light at 7 a.m. All animal manipulations were carried out according to the Directive 2010/63/EU of the European parliament and of the European Union council (22 September 2010) on the protection of animals used for scientific purposes. The ethical policy of the University of Florence complies with the Guide for the Care and Use of Laboratory Animals of the US National Institutes of Health (NIH Publication No. 85–23, revised 1996; University of Florence assurance number: A5278-01). […]
# Weight bearing changes were measured using an Incapacitance Apparatus (Linton Instrumentation, UK), detecting changes in postural equilibrium after a hind limb injury. […] Data are expressed as the difference between the weight applied to the limb contralateral to the injury and the weight applied to the ipsilateral one (Δ weight).
# CFA-treated rats [2] = test: Paw pressure test in CFA-induced inflammatory arthritis; type: in vivo, rat; conditions: 10 mg/kg p.o. daily for 7 days, day 8 (24 h after last dose), CFA + vehicle 35.2 ± 1.6 g, sham + vehicle 66.4 ± 2.3 g, mean ± SEM, five rats
# Experimental: as §1, with “A5278-01). Formal approval to conduct the experiments described was obtained from the Italian Ministry of Health (No. 517/2017, 06/04/2017) and from the Animal Subjects Review Board of the University of Florence. Experiments involving animals have been reported according to ARRIVE guidelines.” for “A5278-01).”
# Nociceptive threshold was determined with an analgesimeter (Ugo Basile, Varese, Italy). […]
# human neutrophils (hPMN) [3] = test system: human neutrophils (hPMN); parameters: method as in PMID 32388428; conditions: Ca2+ mobilization; cited from earlier work
# [4] = test system: rat model of rheumatoid arthritis; parameters: method as in PMID 32388428; conditions: dose of 30 mg/kg/day; cited from earlier work
# FPR2 [5] = molecular target: T1, FPR2 (Homo sapiens, UniProt P25090); test: Ca2+ mobilization in FPR2-transfected HL60 cells; type: cell-based
# T1 construct: expressed in transfected cells; host or cells: HL60 (human promyelocytic leukemia), stably transfected; gift from Dr. Marie-Josephe Rabiet
# T1 sequence (P25090 1-351): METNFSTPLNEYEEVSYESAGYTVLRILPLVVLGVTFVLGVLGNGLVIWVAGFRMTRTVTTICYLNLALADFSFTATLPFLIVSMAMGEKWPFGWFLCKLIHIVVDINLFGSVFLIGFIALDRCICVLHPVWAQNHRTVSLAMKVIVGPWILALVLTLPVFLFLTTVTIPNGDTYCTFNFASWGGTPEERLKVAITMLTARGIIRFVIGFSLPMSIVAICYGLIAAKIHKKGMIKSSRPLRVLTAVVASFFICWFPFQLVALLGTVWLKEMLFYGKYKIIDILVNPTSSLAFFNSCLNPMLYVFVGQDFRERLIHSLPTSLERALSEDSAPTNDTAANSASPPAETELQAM
# Experimental: (§2) Human promyelocytic leukemia HL60 cells stably transfected with FPR1 (FPR1-HL60 cells) or FPR2 (FPR2-HL60 cells) (kind gift from Dr. Marie-Josephe Rabiet, Université Joseph Fourier, Grenoble, France) were cultured in RPMI 1640 medium supplemented with 10% heat-inactivated fetal calf serum, 10 mM HEPES, 100 μg/mL streptomycin, 100 U/mL penicillin, and G418 (1 mg/mL). G418 was removed in the last round of culture before assays were performed.
# FPR2 [6] = molecular target: T1, FPR2; parameters: method as in PMID 32388428; conditions: Ca2+ mobilization; read-out: FPR2-HL60 EC50; cited from earlier work
# FPR1 [7] = molecular target: T2, FPR1 (Homo sapiens, UniProt P21462); parameters: method as in PMID 32388428; conditions: Ca2+ mobilization; read-out: FPR1-HL60 EC50; cited from earlier work
# T2 construct: expressed in transfected cells; host or cells: HL60 (human promyelocytic leukemia), stably transfected; gift from Dr. Marie-Josephe Rabiet
# T2 sequence (P21462 1-350): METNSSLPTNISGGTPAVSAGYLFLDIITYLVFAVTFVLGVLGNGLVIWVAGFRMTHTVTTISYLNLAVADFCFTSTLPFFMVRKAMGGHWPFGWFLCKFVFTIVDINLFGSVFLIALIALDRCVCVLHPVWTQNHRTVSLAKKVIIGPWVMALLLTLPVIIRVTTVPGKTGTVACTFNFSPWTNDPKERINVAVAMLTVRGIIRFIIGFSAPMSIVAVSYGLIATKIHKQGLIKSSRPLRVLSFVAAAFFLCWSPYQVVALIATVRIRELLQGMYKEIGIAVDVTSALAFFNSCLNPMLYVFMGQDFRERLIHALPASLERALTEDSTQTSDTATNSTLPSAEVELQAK
# [8] = test system: model of antigen-induced arthritis; parameters: method as in PMID 33493655, PMID 30419493; conditions: increasing neutrophil apoptosis and efferocytosis; cited from earlier work
# FPR1 [9] = molecular target: T2, FPR1; test: Ca2+ mobilization in FPR1-transfected HL60 cells; type: cell-based
# Experimental: as §2
# human neutrophils (hPMN) [10] = test: Ca2+ mobilization in human neutrophils (hPMN); type: cell-based; conditions: Neutrophil
# Text: Blood was collected from healthy donors in accordance with a protocol approved by the Institutional Review Board at Montana State University. Neutrophils were purified from the blood using dextran sedimentation, followed by Histopaque 1077 gradient separation and hypotonic lysis of red blood cells. Isolated neutrophils were washed twice and resuspended in HBSS^-. Neutrophil preparations were routinely >95% pure, as determined by light microscopy, and >98% viable, as determined by trypan blue exclusion.
# Changes in intracellular Ca^2+ were measured with a FlexStation II scanning fluorometer (Molecular Devices, Sunnyvale, CA, USA). The cells, suspended in Hank’s balanced salt solution without Ca^2+ and Mg^2+ but with 10 mM HEPES (HBSS^−), were loaded with 1.25 μg/mL Fluo-4 AM dye and incubated for 30 min in the dark at 37 °C. After dye loading, the cells were washed with HBSS^- containing 10 mM HEPES, resuspended in HBSS^+ containing Ca^2+, Mg^2+, and 10 mM HEPES (HBSS^+), and aliquoted into the wells of flat-bottom, half-area-well black microtiter plates (2 × 10^5 cells/well). For the evaluation of direct agonist activity, compounds of interest were added from a source plate containing dilutions of test compounds in HBSS^+, and changes in fluorescence were monitored (λex = 485 nm, λem = 538 nm) every 5 s for 240 s at room temperature after the automated addition of compounds. Maximum change in fluorescence during the first 3 min, expressed in arbitrary units over baseline, was used to determine a response. […] Curve fitting (5–6 points) and calculation of median effective inhibitory concentrations (IC50) were performed by nonlinear regression analysis of the dose–response curves generated using Prism 9 (GraphPad Software, Inc., San Diego, CA, USA).
# [11] = test system: animal models (collagen-induced and antigen-induced arthritis) of RA; parameters: method as in PMID 16697190, PMID 29879657; conditions: dose of 30 mg/kg (i.p.); cited from earlier work
compound,measurement,setting,value
COc1cccc(-c2cc(C#N)c(=O)n(CC(=O)Nc3ccc(Br)cc3)c2C)c1 [AMC3],"postural unbalance, Δ Weight (incapacitance test)",CFA-treated rats [1],34.6 ± 3.8 g
same,pain threshold (paw pressure test),CFA-treated rats [2],52.4 ± 2.8 g
same,EC50,human neutrophils (hPMN) [3],390 ± 170 nM
same,effect on pain hypersensitivity,[4],completely control pain hypersensitivity
"CCOC(=O)c1cc(C#N)c(=O)n(CC(=O)Nc2ccc(Br)cc2)c1C [AMC4, reference compound]",selectivity index (SI) FPR1/FPR2,FPR2 [5]; ratio of EC50 FPR1-HL60 / FPR2-HL60,8
same,EC50,FPR2 [6],380 ± 90 nM
same,EC50,FPR1 [7],3000 ± 400 nM
same,EC50,human neutrophils (hPMN) [3],830 ± 240 nM
CCC[C@@H](O)c1c(/C=C/[C@@H](O)[C@@H](O)CCCC(=O)OC)nc(C)n1C [AT-01-KG],anti-inflammatory activity,[8],anti-inflammatory activity
"Cc1c(-c2cccc(O)c2)cc(C#N)c(=O)n1CC(=O)Nc1ccc(Br)cc1 [Compound 14a, N-(4-Bromophenyl)-2-[3-cyano-5-(3-hydroxyphenyl)-6-methyl-2-oxopyridin-1(2H)-yl] acetamide]",melting point,,282 to 284 °C (dec.)
same,EC50,FPR2 [5],230 ± 20 nM
same,Emax,"FPR2 [5]; HL-60, read-out: FPR2-HL60 Efficacy (converted)",150%
same,EC50,FPR1 [9],230 ± 60 nM
same,Emax,"FPR1 [9]; HL-60, read-out: FPR1-HL60 Efficacy (converted)",115%
same,EC50,human neutrophils (hPMN) [10],3700 ± 700 nM
same,Emax,human neutrophils (hPMN) [10]; read-out: hPMN Efficacy (converted),130%
CC(C)c1c(NC(=O)Nc2ccc(Cl)cc2)c(=O)n(-c2ccccc2)n1C [Cpd43],"effect on arthritis (tissue inflammation, cartilage damage, synovitis)",[11],"significantly reducing the tissue inflammation, cartilage damage, and synovitis"
